Reference: US10688093B2, “Methods, compositions, and uses of novel Fyn kinase inhibitors” (priority 2015, dated 2020)

Target: full-length recombinant human FYN A (Homo sapiens (Human), UniProt P06241)
Assay: ADP-Glo Kinase Assay of FYN kinase inhibition
Type: biochemical
Details: primary screen, initial compounds
In short: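 GST-tagged full-length FYN A (baculovirus, Sf9) at 3 pg preincubated 30 min RT with compound (10-point 3-fold series from 10 μM) in Tris pH 7.5/MgCl2 buffer. 12-mer tyrosine peptide plus 12.5 pmol ATP added, 90 min RT; ADP measured by ADP-Glo luminescence, IC50 from dose-response.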

Chain of full-length recombinant human FYN A (P06241 whole entry): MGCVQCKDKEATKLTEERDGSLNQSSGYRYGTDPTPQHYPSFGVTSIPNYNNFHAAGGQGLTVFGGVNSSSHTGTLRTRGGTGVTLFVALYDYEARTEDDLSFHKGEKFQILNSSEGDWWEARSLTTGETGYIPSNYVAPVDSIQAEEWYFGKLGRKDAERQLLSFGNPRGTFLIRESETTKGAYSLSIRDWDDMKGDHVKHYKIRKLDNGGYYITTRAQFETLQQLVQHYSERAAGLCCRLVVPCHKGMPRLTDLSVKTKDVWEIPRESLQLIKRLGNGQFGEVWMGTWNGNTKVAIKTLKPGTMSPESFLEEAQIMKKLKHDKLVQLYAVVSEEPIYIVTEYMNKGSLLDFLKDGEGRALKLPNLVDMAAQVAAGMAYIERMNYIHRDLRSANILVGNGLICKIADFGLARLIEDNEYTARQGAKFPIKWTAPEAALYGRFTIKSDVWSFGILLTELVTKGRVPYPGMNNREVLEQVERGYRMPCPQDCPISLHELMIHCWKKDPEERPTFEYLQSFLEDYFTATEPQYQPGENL

Row | Compound | IC50
1 | COCOc1ccc(-c2cc(-c3ccc(C(N)=O)cc3)cnc2N)cc1 [382_0341_0346, 4-[6-amino-5-[4-(methoxy-methoxy)phenyl]-3-pyridyl] benzamide] | 3420 nM
2 | COCOc1ccc(-c2cc(-c3cccc(C(N)=O)c3)cnc2N)cc1 [382_0341_0347, 3-[6-amino-5-[4-(methoxymethoxy)phenyl]-3-pyridyl]benzamide] | 3020 nM
3 | CC(=O)Nc1cccc(-c2cnc(N)c(-c3ccc(O)cc3)c2)c1 [382_7249_0081, N-[3-[6-amino-5-(4-hydroxyphenyl)-3-pyridyl]phenyl] acetamide] | 838 nM
4 | COc1cc(-c2cnc(N)c(-c3ccc(O)cc3)c2)cc(OC)c1OC [382_7249_0087, 4-[2-amino-5-(3,4,5-trimethoxy-phenyl)-3-pyridyl]phenol] | 209 nM
5 | CN(C)c1cccc(-c2cnc(N)c(-c3ccc(O)cc3)c2)c1 [382_7249_0135, 4-[2-amino-5-[3-(dimethylamino)phenyl]-3-pyridyl]phenol] | 2190 nM
6 | CS(=O)(=O)c1ccc(-c2cnc(N)c(-c3ccc(O)cc3)c2)cc1 [382_7249_0174, 4-[2-amino-5-(4-methylsulfonyl-phenyl)-3-pyridyl]phenol] | 1250 nM
7 | COc1cccc(-c2cnc(N)c(-c3ccc(O)cc3)c2)c1 [382_7249_4140, 4-[2-amino-5-(3-methoxyphenyl)-3-pyridyl]phenol] | 3490 nM
8 | CN(C)CCNC(=O)c1ccc(-c2cn3c(-c4ccncc4)cnc3cn2)cc1 [388_0069_0327, N-(2-dimethylamino-ethyl)-4-[3-(4-pyridyl)imidazo [1,2-a]pyrazin-6-yl]benzamide] | 6910 nM
9 | c1ccc(-c2cn3c(-c4ccsc4)cnc3cn2)cc1 [388_0074_0061, 6-phenyl-3-(3-thienyl)imidazo [1,2-a]pyrazine] | 3950 nM
10 | c1cncc(-c2cn3c(-c4ccsc4)cnc3cn2)c1 [388_0074_0071, 6-(3-pyridyl)-3-(3-thienyl)imidazo [1,2-a]pyrazine] | 4340 nM
11 | OCc1ccc(-c2cn3c(-c4ccsc4)cnc3cn2)cc1 [388_0074_0285, [4-[3-(3-thienyl)imidazo [1,2-a]pyrazin-6-yl]phenyl] methanol] | 2350 nM
12 | Cn1cc(-c2cn3c(-c4ccsc4)cnc3cn2)cn1 [388_0074_8400, 6-(1-methylpyrazol-4-yl)-3-(3-thienyl)imidazo [1,2-a]pyrazine] | 6380 nM
13 | CC(C)N1CCN(c2ccc(-c3cn4c(-c5ccc(O)cc5)cnc4cn3)cc2)CC1 [388_0080_0182, 4-[6-[4-(4-isopropyl-piperazin-1-yl)phenyl]imidazo [1,2-a]pyrazin-3-yl]phenol] | 637 nM
14 | O=C(NCCO)c1cccc(-c2cn3c(-c4ccc(O)cc4)cnc3cn2)c1 [388_0080_0192, N-(2-hydroxy-ethyl)-3-[3-(4-hydroxyphenyl)imidazo[1,2-a]pyrazin-6-yl]benzamide] | 1030 nM
15 | CN1CCN(c2ccc(-c3cn4c(-c5ccc(O)cc5)cnc4cn3)cc2)CC1 [388_0080_0218, 4-[6-[4-(4-methyl-piperazin-1-yl)phenyl]imidazo [1,2-a]pyrazin-3-yl]phenol] | 678 nM
16 | O=C(NCCO)c1ccc(-c2cn3c(-c4ccc(O)cc4)cnc3cn2)cc1 [388_0080_0328, N-(2-hydroxyethyl)-4-[3-(4-hydroxyphenyl)imidazo[1,2-a]pyrazin-6-yl]benzamide] | 641 nM
17 | CN(C)C(=O)c1cccc(-c2cn3c(-c4ccc(O)cc4)cnc3cn2)c1 [388_0080_0349, 3-[3-(4-hydroxyphenyl)imidazo[1,2-a]pyrazin-6-yl]-N,N-dimethyl-benzamide] | 974 nM

Row | Compound | IC50
18 | Oc1ccc(-c2cnc3cnc(-c4cnn(Cc5ccccc5)c4)cn23)cc1 [388_0080_7469, 4-[6-(1-benzylpyrazol-4-yl)imidazo[1,2-a]pyrazin-3-yl]phenol] | 6620 nM
19 | O=C(NC1CC1)c1ccc(-c2cn3c(-c4ccc(O)cc4)cnc3cn2)cc1 [388_0080_7489, N-cyclopropyl-4-[3-(4-hydroxyphenyl)imidazo[1,2-a]pyrazin-6-yl]benzamide] | 1960 nM
20 | Nc1ccc(-c2cn3c(-c4ccc(O)cc4)cnc3cn2)cn1 [388_0080_7905, 4-[6-(6-amino-3-pyridyl)imidazo [1,2-a]pyrazin-3-yl]phenol] | 1930 nM
21 | COc1cc(-c2cnc3cnc(-c4cccc(NS(C)(=O)=O)c4)cn23)cc(OC)c1OC [388_0087_6488, N-[3-[3-(3,4,5-trimethoxyphenyl)imidazo[1,2-a]pyrazin-6-yl]phenyl] methane-sulfonamide] | 2800 nM
22 | COc1ccc(-c2cnc3cnc(-c4ccc(O)cc4)cn23)cc1 [388_0280_0080, 4-[3-(4-methoxyphenyl)imidazo[1,2-a]pyrazin-6-yl]phenol] | 10500 nM
23 | COc1cc(-c2cnc3cnc(-c4ccc(NCCN5CCOCC5)nc4)cn23)ccc1O [388_0314_0003, 2-methoxy-4-[6-[6-(2-morpholinoethyl-amino)-3-pyridyl]imidazo [1,2-a]pyrazin-3-yl]phenol] | 1350 nM
24 | COc1cc(-c2cnc3cnc(-c4ccccc4N(C)C)cn23)ccc1O [388_0314_0006, 4-[6-[2-(dimethylamino)phenyl]imidazo [1,2-a]pyrazin-3-yl]-2-methoxy-phenol] | 1750 nM
25 | COc1cc(-c2cnc3cnc(-c4ccc(N5CCN(C)CC5)nc4)cn23)ccc1O [388_0314_0016, 2-methoxy-4-[6-[6-(4-methylpiperazin-1-yl)-3-pyridyl]imidazo [1,2-a]pyrazin-3-yl]phenol] | 1130 nM
26 | COc1cc(-c2cnc3cnc(-c4cccnc4)cn23)ccc1O [388_0314_0071, 2-methoxy-4-[6-(3-pyridyl)imidazo[1,2-a]pyrazin-3-yl]phenol] | 3070 nM
27 | COc1cc(-c2cnc3cnc(-c4ccc(C(=O)NCCCN(C)C)cc4)cn23)ccc1O [388_0314_0180, N-[3-(dimethylamino)propyl]-4-[3-(4-hydroxy-3-methoxy-phenyl)imidazo [1,2-a]pyrazin-6-yl]benzamide] | 606 nM
28 | COc1cc(-c2cnc3cnc(-c4cccc(C(=O)NCCO)c4)cn23)ccc1O [388_0314_0192, N-(2-hydroxyethyl)-3-[3-(4-hydroxy-3-methoxy-phenyl)imidazo [1,2-a]pyrazin-6-yl]benzamide] | 896 nM
29 | CCOc1cccc(-c2cn3c(-c4ccc(O)c(OC)c4)cnc3cn2)c1 [388_0314_0205, 4-[6-(3-ethoxyphenyl)imidazo[1,2-a]pyrazin-3-yl]-2-methoxy-phenol] | 1360 nM
30 | COc1cc(-c2cnc3cnc(-c4ccc(C(=O)NCCN(C)C)cc4)cn23)ccc1O [388_0314_0327, N-(2-dimethylamino-ethyl)-4-[3-(4-hydroxy-3-methoxy-phenyl)imidazo [1,2-a]pyrazin-6-yl]benzamide] | 440 nM
31 | COc1cc(-c2cnc3cnc(-c4ccccc4Cl)cn23)ccc1O [388_0314_4027, 4-[6-(2-chlorophenyl)imidazo[1,2-a]pyrazin-3-yl]-2-methoxy-phenol] | 2540 nM
32 | COc1cc(-c2cnc3cnc(-c4ccc(N)nc4)cn23)ccc1O [388_0314_7905, 4-[6-(6-amino-3-pyridyl)imidazo [1,2-a]pyrazin-3-yl]-2-methoxy-phenol] | 1410 nM
33 | COc1cc(-c2cnc3cnc(-c4cnn(C)c4)cn23)ccc1O [388_0314_8400, 2-methoxy-4-[6-(1-methylpyrazol-4-yl)imidazo[1,2-a]pyrazin-3-yl]phenol] | 746 nM
